Measured values from patent publication US12539292B2, “BRM targeting compounds and associated methods of use” (Arvinas Operations, Inc., priority 2018, dated 2026).
Read-outs that look alike come from different tables or passages of the source.

Target: T1, BRM (Homo sapiens, UniProt P51531)
T1 construct: In-Cell Western Screen of BRM Degradation in SW1573 Cells; endogenous in cells; host or cells: SW1573
Assay: In-cell Western screen of BRM degradation in SW1573 cells (Dmax and DC50)
Format: cell-based
Method in brief: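 Adherent SW1573 cultures exposed to test compounds for 18-20 h were processed for in-cell Western after PFA fixation and detergent permeabilization. BRM degradation was reported as Dmax and DC50.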

[1] = BRM degradation, SW1573 cells, Table 2D, read-out: **Dmax (%) (% degraded)
[2] = BRM degradation, SW1573 cells, Table 2D, read-out: *DC50
[3] = target protein degradation, read-out: BRM DC50
[4] = SW1573, % degraded, when tested at the top concentration of between 0.3 and 10 μM, read-out: BRM Dmax (%)
[5] = BRM degradation, SW1573 cells, read-out: DC50
[6] = BRM degradation, SW1573 cells, when tested at the top concentration of between 0.3 and 10 μM, read-out: Dmax (%) (% degraded)

T1 sequence (P51531 whole entry): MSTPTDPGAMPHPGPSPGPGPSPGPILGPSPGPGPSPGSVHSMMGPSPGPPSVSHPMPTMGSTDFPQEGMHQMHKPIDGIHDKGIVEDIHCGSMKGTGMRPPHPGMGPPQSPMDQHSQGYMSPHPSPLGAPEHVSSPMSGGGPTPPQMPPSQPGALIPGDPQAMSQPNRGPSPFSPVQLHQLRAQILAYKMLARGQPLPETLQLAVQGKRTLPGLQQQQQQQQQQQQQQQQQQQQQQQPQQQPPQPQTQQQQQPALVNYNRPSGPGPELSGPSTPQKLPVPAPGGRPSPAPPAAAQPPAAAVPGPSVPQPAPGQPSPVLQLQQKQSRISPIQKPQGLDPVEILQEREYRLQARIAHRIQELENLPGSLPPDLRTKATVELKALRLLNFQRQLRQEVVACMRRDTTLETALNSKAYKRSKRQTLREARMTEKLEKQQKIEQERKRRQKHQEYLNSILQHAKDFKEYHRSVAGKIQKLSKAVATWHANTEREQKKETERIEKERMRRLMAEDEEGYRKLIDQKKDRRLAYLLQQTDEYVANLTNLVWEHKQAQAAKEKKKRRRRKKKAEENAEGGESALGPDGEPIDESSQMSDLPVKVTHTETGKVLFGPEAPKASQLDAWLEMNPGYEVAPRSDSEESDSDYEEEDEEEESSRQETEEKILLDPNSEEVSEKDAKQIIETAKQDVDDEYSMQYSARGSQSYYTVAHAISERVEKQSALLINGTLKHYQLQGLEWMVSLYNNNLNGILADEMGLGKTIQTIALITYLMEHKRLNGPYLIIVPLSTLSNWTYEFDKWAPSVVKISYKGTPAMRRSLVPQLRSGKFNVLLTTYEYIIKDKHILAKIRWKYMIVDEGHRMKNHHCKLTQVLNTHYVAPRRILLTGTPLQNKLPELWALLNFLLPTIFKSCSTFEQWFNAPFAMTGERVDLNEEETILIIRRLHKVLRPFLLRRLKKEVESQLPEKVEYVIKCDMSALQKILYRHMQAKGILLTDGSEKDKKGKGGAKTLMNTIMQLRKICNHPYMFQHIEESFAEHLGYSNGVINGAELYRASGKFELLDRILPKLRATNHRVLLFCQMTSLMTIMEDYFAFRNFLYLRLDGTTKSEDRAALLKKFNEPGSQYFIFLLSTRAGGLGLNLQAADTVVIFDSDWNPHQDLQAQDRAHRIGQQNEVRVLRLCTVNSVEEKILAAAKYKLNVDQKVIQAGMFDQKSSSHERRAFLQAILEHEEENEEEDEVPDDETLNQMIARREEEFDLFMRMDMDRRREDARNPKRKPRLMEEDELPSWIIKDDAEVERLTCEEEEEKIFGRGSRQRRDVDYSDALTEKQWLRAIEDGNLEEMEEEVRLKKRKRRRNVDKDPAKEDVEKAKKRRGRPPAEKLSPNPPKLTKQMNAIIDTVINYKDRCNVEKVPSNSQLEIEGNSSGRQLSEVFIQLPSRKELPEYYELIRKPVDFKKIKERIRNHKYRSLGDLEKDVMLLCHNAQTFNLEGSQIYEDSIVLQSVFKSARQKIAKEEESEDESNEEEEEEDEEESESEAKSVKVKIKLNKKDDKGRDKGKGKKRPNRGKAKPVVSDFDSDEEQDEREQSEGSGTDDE

| DC50 [2] | DC50 [5] | Compound | DC50 [3] | also measured |
| --- | --- | --- | --- | --- |
| 10 to 30 nM | – | Cc1ncsc1-c1ccc([C@H](C)NC(=O)[C@@H]2C[C@@H](O)CN2C(=O)[C@H](c2cc(OCCC3CCN(C[C@H]4C[C@H](N5CCC(CN6CCOC7(CCN(c8cc(-c9ccccc9O)nnc8N)CC7)C6)CC5)C4)CC3)no2)C(C)C)cc1 [compound 597, (2S,4R)-1-((S)-2-(3-(2-(1-(((1r,3S)-3-(4-((9-(3-amino-6-(2-hydroxyphenyl)pyridazin-4-yl)-1-oxa-4,9-diazaspiro[5.5]undecan-4-yl)methyl)piperidin-1-yl)cyclobutyl)methyl)piperidin-4-yl)ethoxy)isoxazol-5-yl)-3-methylbutanoyl)-4-hydroxy-N-((S)-1-(4-(4-methylthiazol-5-yl)phenyl)ethyl)pyrrolidine-2-carboxamide] | – | Dmax [1]: > 75% |
| > 30 nM | – | Cc1cc([C@H](C(=O)N2C[C@H](O)C[C@H]2C(=O)N[C@@H](C)c2ccc(-c3scnc3C)cc2)[C@H](C)COCCn2cc(-c3cc(-c4ccccc4O)nnc3N)cn2)on1 [compound 538, (2S,4R)-1-((2R,3S)-4-(2-(4-(3-amino-6-(2-hydroxyphenyl)pyridazin-4-yl)-1H-pyrazol-1-yl)ethoxy)-3-methyl-2-(3-methylisoxazol-5-yl)butanoyl)-4-hydroxy-N-((S)-1-(4-(4-methylthiazol-5-yl)phenyl)ethyl)pyrrolidine-2-carboxamide] | – | – |
| > 30 nM | – | Cc1ncsc1-c1ccc([C@H](C)NC(=O)[C@@H]2C[C@@H](O)CN2C(=O)[C@H](c2cc(OCC[C@@H]3CCN(C[C@H]4C[C@H](Oc5cc(N6C7CCC6CN(c6cc(-c8ccccc8O)nnc6N)C7)ccn5)C4)C[C@@H]3C)no2)C(C)C)cc1 (racemic) [compound 543, (2S,4R)-1-((2S)-2-(3-(2-((3R,4S)-1-(((1r,3R)-3-((4-(3-(3-amino-6-(2-hydroxyphenyl)pyridazin-4-yl)-3,8-diazabicyclo[3.2.1]octan-8-yl)pyridin-2-yl)oxy)cyclobutyl)methyl)-3-methylpiperidin-4-yl)ethoxy)isoxazol-5-yl)-3-methylbutanoyl)-4-hydroxy-N-((S)-1-(4-(4-methylthiazol-5-yl)phenyl)ethyl)pyrrolidine-2-carboxamide] | – | – |
| – | – | CC(C)[C@@H](C(=O)N1C[C@H](O)C[C@H]1C(=O)N[C@@H](C)c1ccc(-n2ccccc2=O)cc1)c1cc(OCCN2CCC(O[C@H]3C[C@H](Oc4cc(N5C6CCC5CN(c5cc(-c7ccccc7O)nnc5N)C6)ccn4)C3)CC2)no1 [compound 373, (2S,4R)-1-((2R)-2-(3-(2-(4-((1r,3R)-3-((4-(3-(3-amino-6-(2-hydroxyphenyl)pyridazin-4-yl)-3,8-diazabicyclo[3.2.1]octan-8-yl)pyridin-2-yl)oxy)cyclobutoxy)piperidin-1-yl)ethoxy)isoxazol-5-yl)-3-methylbutanoyl)-4-hydroxy-N-((S)-1-(4-(2-oxopyridin-1(2H)-yl)phenyl)ethyl)pyrrolidine-2-carboxamide] | > 30 nM | – |
| – | – | Cc1ncsc1-c1ccc([C@H](C)NC(=O)[C@@H]2C[C@@H](O)CN2C(=O)[C@@H](c2cc(OCC(F)(F)CN3CCC(O[C@H]4C[C@H](Oc5cc(N6C7CCC6CN(c6cc(-c8ccccc8O)nnc6N)C7)ccn5)C4)CC3)no2)C(C)C)cn1 [compound 422, (2S,4R)-1-((2R)-2-(3-(3-(4-((1r,3R)-3-((4-(3-(3-amino-6-(2-hydroxyphenyl)pyridazin-4-yl)-3,8-diazabicyclo[3.2.1]octan-8-yl)pyridin-2-yl)oxy)cyclobutoxy)piperidin-1-yl)-2,2-difluoropropoxy)isoxazol-5-yl)-3-methylbutanoyl)-4-hydroxy-N-((S)-1-(6-(4-methylthiazol-5-yl)pyridin-3-yl)ethyl)pyrrolidine-2-carboxamide] | – | Dmax [4]: > 75%; DC50 (degradation of BRM, read-out: BRM DC50): < 2.5 nM |
| – | < 2.5 nM | Cc1ncsc1-c1ccc([C@H](C)NC(=O)[C@@H]2C[C@@H](O)CN2C(=O)[C@@H](c2cc(OCCN3CCN(CCC#CCn4cc(-c5cc(-c6ccccc6O)nnc5N)cn4)CC3)no2)C(C)C)cn1 [compound 352, (2S,4R)-1-((R)-2-(3-(2-(4-(5-(4-(3-amino-6-(2-hydroxyphenyl)pyridazin-4-yl)-1H-pyrazol-1-yl)pent-3-yn-1-yl)piperazin-1-yl)ethoxy)isoxazol-5-yl)-3-methylbutanoyl)-4-hydroxy-N-((S)-1-(6-(4-methylthiazol-5-yl)pyridin-3-yl)ethyl)pyrrolidine-2-carboxamide] | – | Dmax (BRM degradation, SW1573 cells, tested at the top concentration of between 0.3 and 10 μM, read-out: Dmax (%) (% degraded)): > 75% |
| – | 10 to 30 nM | Cc1ncsc1-c1ccc(CNC(=O)[C@@H]2C[C@@H](O)CN2C(=O)[C@@H](c2cc(OCCOCCOCCn3cc(-c4cc(-c5ccccc5O)nnc4N)cn3)no2)C(C)C)cc1 [compound 15, (2S,4R)-1-[(2R)-2-(3-[2-[2-(2-[4-[3-amino-6-(2-hydroxyphenyl)pyridazin-4-yl]-1H-pyrazol-1-yl]ethoxy)ethoxy]ethoxy]-1,2-oxazol-5-yl)-3-methylbutanoyl]-4-hydroxy-N-[[4-(4-methyl-1,3-thiazol-5-yl)phenyl]methyl]pyrrolidine-2-carboxamide] | – | Dmax [6]: > 75% |
| – | – | Cc1ncsc1-c1ccc([C@H](C)NC(=O)[C@@H]2C[C@@H](O)CN2C(=O)[C@H](c2cc(OCC#Cc3ncc(O[C@H]4C[C@H](Oc5cc(N6C7CCC6CN(c6cc(-c8ccccc8O)nnc6N)C7)ccn5)C4)cn3)no2)C(C)C)cn1 [compound 399, (2S,4R)-1-((2S)-2-(3-((3-(5-((1r,3S)-3-((4-(3-(3-amino-6-(2-hydroxyphenyl)pyridazin-4-yl)-3,8-diazabicyclo[3.2.1]octan-8-yl)pyridin-2-yl)oxy)cyclobutoxy)pyrimidin-2-yl)prop-2-yn-1-yl)oxy)isoxazol-5-yl)-3-methylbutanoyl)-4-hydroxy-N-((S)-1-(6-(4-methylthiazol-5-yl)pyridin-3-yl)ethyl)pyrrolidine-2-carboxamide] | > 30 nM | – |
| – | – | Cc1ncsc1-c1ccc([C@H](C)NC(=O)[C@@H]2C[C@@H](O)CN2C(=O)[C@@H](c2cc(OCCN3CCC(O[C@H]4C[C@H](Oc5cc(N6C7CCC6CN(c6ccn8cc(-c9ccccc9O)nc8n6)C7)ccn5)C4)CC3)no2)C(C)C)cc1 [compound 489, (2S,4R)-4-hydroxy-1-((2R)-2-(3-(2-(4-((1r,3R)-3-((4-(3-(2-(2-hydroxyphenyl)imidazo[1,2-a]pyrimidin-7-yl)-3,8-diazabicyclo[3.2.1]octan-8-yl)pyridin-2-yl)oxy)cyclobutoxy)piperidin-1-yl)ethoxy)isoxazol-5-yl)-3-methylbutanoyl)-N-((S)-1-(4-(4-methylthiazol-5-yl)phenyl)ethyl)pyrrolidine-2-carboxamide] | > 30 nM | – |
| – | – | Cc1ncsc1-c1ccc([C@H](C)NC(=O)[C@@H]2C[C@@H](O)CN2C(=O)[C@@H](c2cc(OC/C=C/c3ncc(O[C@H]4C[C@H](Oc5cc(N6C7CCC6CN(c6cc(-c8ccccc8O)nnc6N)C7)ccn5)C4)cn3)no2)C(C)C)cc1 [compound 392, (2S,4R)-1-((2R)-2-(3-(((E)-3-(5-((1r,3R)-3-((4-(3-(3-amino-6-(2-hydroxyphenyl)pyridazin-4-yl)-3,8-diazabicyclo[3.2.1]octan-8-yl)pyridin-2-yl)oxy)cyclobutoxy)pyrimidin-2-yl)allyl)oxy)isoxazol-5-yl)-3-methylbutanoyl)-4-hydroxy-N-((S)-1-(4-(4-methylthiazol-5-yl)phenyl)ethyl)pyrrolidine-2-carboxamide] | < 2.5 nM | Dmax [4]: > 75% |
| – | < 2.5 nM | Cc1ncsc1-c1ccc([C@H](C)NC(=O)[C@@H]2C[C@@H](O)CN2C(=O)[C@@H](c2cc(OCCN3CCC4(CC3)CC(OCCN3CCOC5(CCN(c6cc(-c7ccccc7O)nnc6N)CC5)C3)C4)no2)C(C)C)cc1 [compound 93, (2S,4R)-1-((R)-2-(3-(2-(2-(2-(9-(3-amino-6-(2-hydroxyphenyl)pyridazin-4-yl)-1-oxa-4,9-diazaspiro[5.5]undecan-4-yl)ethoxy)-7-azaspiro[3.5]nonan-7-yl)ethoxy)isoxazol-5-yl)-3-methylbutanoyl)-4-hydroxy-N-((S)-1-(4-(4-methylthiazol-5-yl)phenyl)ethyl)pyrrolidine-2-carboxamide] | – | Dmax [6]: > 75% |

| Compound | DC50 [2] | DC50 [5] | DC50 [3] | also measured |
| --- | --- | --- | --- | --- |
| Cc1ncsc1-c1ccc([C@@H](NC(=O)[C@@H]2C[C@@H](O)CN2C(=O)[C@H](c2cc(N3CCC(CN4CCC(O[C@H]5C[C@H](Oc6cc(N7C8CCC7CN(c7cc(-c9ccccc9O)nnc7N)C8)ccn6)C5)CC4)CC3)no2)C(C)C)C(=O)N(C)C2CCC2)cc1 [compound 612, (2S,4R)-1-((2R)-2-(3-(4-((4-((1r,3r)-3-((4-(3-(3-amino-6-(2-hydroxyphenyl)pyridazin-4-yl)-3,8-diazabicyclo[3.2.1]octan-8-yl)pyridin-2-yl)oxy)cyclobutoxy)piperidin-1-yl)methyl)piperidin-1-yl)isoxazol-5-yl)-3-methylbutanoyl)-N-((R)-2-(cyclobutyl(methyl)amino)-1-(4-(4-methylthiazol-5-yl)phenyl)-2-oxoethyl)-4-hydroxypyrrolidine-2-carboxamide] | < 2.5 nM | – | – | Dmax [1]: > 75% |
| Cc1ncsc1-c1ccc(CNC(=O)[C@@H]2C[C@@H](O)CN2C(=O)[C@H](c2cc(OCCOCCOCCOc3cc(N4C5CCC4CN(c4cc(-c6ccccc6O)nnc4N)C5)ccn3)no2)C(C)C)cc1 [compound 27, (2S,4R)-1-[(2S)-2-[3-[2-(2-[2-[(4-[3-[3-amino-6-(2-hydroxyphenyl)pyridazin-4-yl]-3,8-diazabicyclo[3.2.1]octan-8-yl]pyridin-2-yl)oxy]ethoxy]ethoxy)ethoxy]-1,2-oxazol-5-yl]-3-methylbutanoyl]-4-hydroxy-N-[[4-(4-methyl-1,3-thiazol-5-yl)phenyl]methyl]pyrrolidine-2-carboxamide] | – | > 30 nM | – | Dmax [6]: > 75% |
